# Patent US6264974A, “Buccal and sublingual administration of physostigmine” (priority 1998, dated 2001)
# Entries after “also recorded” stand apart in the source; their conditions may differ.
# Assay: Intravenous and buccal pharmacokinetics of Physostigmine in rats (plasma levels by HPLC with fluorimetric detector)
# Assay type: in vivo, male Lewis rats
# Conditions: rat plasma, 200 μg/kg, Physostigmine hemisulfate in normal saline
# Procedure: Lewis Rats were used to evaluate the buccal/sublingual delivery of Physostigmine. The Physostigmine drug concentration in rat plasma was determined using a conventional high pressure liquid chromatography analytical procedure which measures drug concentration by fluorimetric detector.
# To determine whether Physostigmine would be absorbed by mucosa and produce a sustained plasma level, two separate groups of male Lewis rats, were administered Physostigmine hemisulfate, a salt of Physostigmine, intravenously or buccally in normal saline. The rats weighed approximately 300 g and were fasted overnight prior to dosing. All rats were anesthetized with pentobarbital (50 mg/kg) prior to dosing. The jugular vein was cannulated and attached to a syringe through 3-way stopcock for blood collections. Blood samples (1 ml) were withdrawn through the jugular cannula and replaced with an equal volume of fresh blood (37 degrees C) from separate blood donor rats after each sampling as a function of time. […]
# The terminal decay rate constant (k) and the terminal half-life (t1/2) after intravenous administration was calculated by linear regression of the terminal portion of the individual sample In Cp (plasma drug concentration) versus time plot of FIG. 1.
smiles,measurement,setting,value
"CNC(=O)Oc1ccc2c(c1)[C@]1(C)CCN(C)[C@@H]1N2C [Physostigmine, 1,2,3,3a,8,8a-hexahydro-1,3a,8-trimethylpyrrolo[2,3-b]indol-5-ol methylcarbamate]",half-life,"0.2 mg/kg, intravenous, FIG. 1, read-out: plasma half-life (terminal half-life, t1/2)",25 min
same,plasma concentration vs. time profile,"buccal, esophagus ligated, over eight hours (t1/2 could not be determined), FIG. 2",did not decay for the period of the experiment; also recorded: highly sustained
